Measurements as given in paper PMC9394474 (Viruses, 2022).
Values joined by “and” are separate entries in the source; they are usually repeats but may differ in a detail not shown here. Identical values can stand only once. Like-named read-outs stand apart in the source and are kept apart here. Ends that are not written are not given here. Peptide text beside a SMILES is read from it.

Molecular target: human hisTRIM7-PRYSPRY (Homo sapiens, UniProt Q9C029)
Test: ITC binding to human TRIM7 PRYSPRY (wild type)

Row | Molecule | Kd | Kd (KD, ITC, one-site model, 15 °C, 50 mM phosphate pH 6.5, 1 mM DTT, TRIM7 500 µM, ligand 100 µM (peptide 50 µM), representative trace and fit)
1 | CC(=O)N[C@@H](CC(C)C)C(=O)N[C@@H](CC(C)C)C(=O)N[C@@H](CCC(N)=O)C(=O)O [Ac-LLQ] (Ac-Leu-Leu-Gln-OH) | 38.7 ± 5.16 µM | 
2 | CC(C)C[C@H](N)C(=O)N[C@@H](CCC(N)=O)C(=O)O [LQ] (H-Leu-Gln-OH) | 201 ± 30 µM | 
3 | AIEALFQ [AIEALFQ] | 17 ± 4.3 µM | 
4 | AAAAALQ [polyA-LQ] | 8.92 µM and 8 µM | 
5 | DNIKKKLDTYLQ [rbGYG322-333] |  | 21 ± 1.8 µM
